“Also recorded” adds a separate entry of the source.
Experiments:
[1] = tested on: MDA-MB-231 cells; experiment: Vacuolation of MDA-MB-231 cells caused by inhibition of compounds on PIKfyve (microscopy); type: cell-based; conditions: MDA-MB-231 cells; also: key: '+' represents the degree of vacuolation; ++: more '+' indicates more obvious vacuolation; +++: more '+' indicates more obvious vacuolation; ++++: more '+' indicates more obvious vacuolation; '−' represents no vacuolation
Summary of the method: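 MDA-MB-231 cells in 12-well plates at 37 °C, 5% CO2 were observed by microscopy after 24 and 48 h of culture for cytoplasmic vacuolation as a readout of PIKfyve inhibition. Scoring was semi-quantitative, from − (none) to increasing +.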

[2] = tested on: JeKo-1 cells; experiment: Tumor cell growth inhibition by MTS method, JeKo-1; type: cell-based; conditions: Homo sapiens, JeKo-1, 120 h, 5 days of culture
Summary of the method: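 Cells seeded at 20000 per well, treated with 8-point 3-fold dilutions from 10 mM DMSO stock in triplicate, 0.1% DMSO controls. MTS read at OD490; IC50 from inhibition rates, or % inhibition at 10 μM.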

[3] = tested on: A375; experiment: Tumor cell growth inhibition by MTS method, A375; type: cell-based; conditions: Homo sapiens, A-375; A375, 3.3 μM; read-out: Inhibition rate %
Protocol: (§1) III. Determination of IC50 Value of Compound for Inhibiting Tumor Cell Growth by MTS Method
(§2) 1. Cell plating: cells in logarithmic growth phase were counted and inoculated in a 96-well plate (20000 cells per well).
(§3) 2. Administrating agent to cell: 10 mM compound mother solution in DMSO was subjected to 3 fold-gradient dilution, to set 8 concentrations, which were then added to various wells, with three replicates for each concentration, and three blank wells (only culture medium) and three negative controls (containing 0.1% DMSO) on each plate.
(§4) 3. […] The OD value at 490 nm was measured with microplate reader OD490. The cell growth inhibition rate was calculated by the following formula: Cell growth inhibition rate %=1−(ODexperimental group−ODblank group)/(ODnegative group−ODblank group)×100%

[4] = tested on: SK-MEL-28; experiment: Tumor cell growth inhibition by MTS method, SK-MEL-28; type: cell-based; conditions: Homo sapiens; SK-MEL-28, 3.3 μM; read-out: Inhibition rate %
Protocol: as §1, §2, §3, §4

[5] = tested on: SK-MEL-30; experiment: Tumor cell growth inhibition by MTS method, SK-MEL-30; type: cell-based; conditions: Homo sapiens; SK-MEL-30, 3.3 μM; read-out: Inhibition rate %
Protocol: as §1, §2, §3, §4

[6] = tested on: A549; experiment: Tumor cell growth inhibition by MTS method, A549; type: cell-based; conditions: Homo sapiens; A549, 3.3 μM; read-out: Inhibition rate %
Protocol: as §1, §2, §3, §4

[7] = tested on: MDA-MB-231; experiment: Tumor cell growth inhibition by MTS method, MDA-MB-231; type: cell-based; conditions: Homo sapiens; MDA-MB-231, 3.3 μM; read-out: Inhibition rate %
Protocol: as §1, §2, §3, §4

[8] = tested on: MDA-MB-435S; experiment: Tumor cell growth inhibition by MTS method, MDA-MB-435S; type: cell-based; conditions: Homo sapiens, read-out: Inhibition rate %
Protocol: as §1, §2, §3, §4

[9] = tested on: MCF-7; experiment: Tumor cell growth inhibition by MTS method, MCF-7; type: cell-based; conditions: Homo sapiens, MCF7; MCF-7, 3.3 μM; read-out: Inhibition rate %
Protocol: as §1, §2, §3, §4

[10] = tested on: HCT116; experiment: Tumor cell growth inhibition by MTS method, HCT116; type: cell-based; conditions: Homo sapiens, HCT-116; HCT116, 3.3 μM; read-out: Inhibition rate %
Protocol: as §1, §2, §3, §4

[11] = tested on: BGC823; experiment: Tumor cell growth inhibition by MTS method, BGC823; type: cell-based; conditions: Homo sapiens, BGC-823; BGC823, 3.3 μM; read-out: Inhibition rate %
Protocol: as §1, §2, §3, §4

[12] = tested on: HepG2; experiment: Tumor cell growth inhibition by MTS method, HepG2; type: cell-based; conditions: Homo sapiens; HepG2, 3.3 μM; read-out: Inhibition rate %
Protocol: as §1, §2, §3, §4

[13] = tested on: MDA-MB-231 xenograft; experiment: Xenograft model of triple negative breast cancer cells (MDA-MB-231) in nude mice; type: in vivo
Protocol: 1. 4-6 weeks old female nude mice were injected subcutaneously with about 5×10^6 MDA-MB-231 cells;
2. When tumor volume (length×width×height×0.5) reached about 100 mm^3, the mice were randomly divided into three groups: control group, group with a dose of 5 mg/kg once a day, and group with a dose of 20 mg/kg once a day, and the initial tumor volume was recorded.
3. The drug or the control solvent was administered intravenously on time every day, the tumor volume was measured every day, and the procedures were continued for 12 days;
(§5) 4. In the last day, the mice were killed 6 hours after administration, the tumor grown under skin was completely peeled off, and the tumor weight was recorded.

[14] = molecular target: PIKfyve protein (Homo sapiens (Human), UniProt Q9Y2I7); experiment: Dissociation equilibrium constant (Kd) of compound and PIKfyve protein, DiscoverX KINOMEscan; type: binding; conditions: eleven 3-fold dilutions, curve fitting
Protocol: II. Determination of Dissociation Equilibrium Constant (Kd Value) of Compound and PIKfyve Protein
The Kd value was determined by DiscoverX's KINOMEscan™ technology according to the following steps:
1. Preparation of magnetic beads: biotin-labeled small molecule ligand and avidin-coated magnetic beads were allowed to interact at room temperature for 30 minutes, and then added with excess biotin, followed by washing with a blocking solution (1% BSA, 0.05% Tween 20, 1 mM DTT) to remove unbound ligand.
2. Binding reaction: in a 384 plate, 0.02 mL system, DNA-labeled protein, small molecule ligand-bound magnetic beads, and different concentrations of compound to be tested were mixed in a reaction solution (0.17×PBS, 0.05% Tween 20, 6 mM DTT) at room temperature with shaking for 1 hr, to which was added an eluant (1×PBS, 0.05% Tween 20) for elution. Magnetic beads were resuspended by an eluant (1×PBS, 0.05% Tween 20, 0.5 μM non-biotin-labeled small molecule ligand), and shaken at room temperature for 30 min before separating out the eluant.
3. Determination of Kd value: the content of protein in the above eluate was determined by qPCR. Eleven 3-fold dilution concentrations were determined for the compound to be tested, with 3 DMSO controls for each concentration, and the Kd value was obtained by curve fitting.

[15] = tested on: Toledo cells; experiment: Growth inhibition of PIKfyve-mediated tumor cells by Cell Titer Glo method, Toledo; type: cell-based; conditions: Homo sapiens, 120 h, CellTiter-Glo, 5 days of culture, read-out: Inhibition rate % (Toledo)
Protocol: (§6) IV. Determination of Growth Inhibition Rates of Compounds Against PIKfyve-Mediated Tumor Cells by Cell Titer Glo Method
(§7) 1. Cell plating: cells in logarithmic growth phase were counted and inoculated in 384-well plate.
(§8) 3. […] RLU was measured on PHERAstar Plus.

[16] = tested on: ST486 cells; experiment: Growth inhibition of PIKfyve-mediated tumor cells by Cell Titer Glo method, ST486; type: cell-based; conditions: Homo sapiens, 120 h, CellTiter-Glo, 5 days of culture, read-out: Inhibition rate % (ST486)
Protocol: as §6, §7, §8

[17] = tested on: JeKo-1 cells; experiment: Lysosomal dysfunction caused by inhibition of PIKfyve, Western Blot of cathepsins in JeKo-1 cells; type: cell-based; conditions: treatment for 24 hr, FIG. 3
Text: V. Lysosomal Dysfunction Caused by Inhibition of Compound V-c-17 on PIKfyve (FIG. 3)
After treatment with V-c-17 for 24 hr, JeKo-1 cells were lysed and tested by Western Blot. […] This was similar to the treatment result with the known PIKfyve inhibitor apilimod.

[18] = tested on: JeKo-1 xenograft; experiment: Xenograft model of non-Hodgkin's lymphoma cells (JeKo-1) in nude mice; type: in vivo; conditions: 25 mg/kg once a day or twice a day
Protocol: 1. 4-6 weeks old female nude mice were injected subcutaneously with about 1×10^7 JeKo-1 cells;
2. When tumor volume (length×width×height×π/4) reached about 100 mm^3, the mice were randomly divided into four groups: control group, V-c-17 group with a dose of 25 mg/kg once a day, V-c-17 group with a dose of 25 mg/kg twice a day, and apilimod group with a dose of 25 mg/kg once a day, and the initial tumor volume was recorded.
3. The drug or the control solvent was administered intravenously on time every day, the tumor volume was measured every day, and the procedures were continued for 7 days;
as §5

Chain of PIKfyve protein (Q9Y2I7 whole entry): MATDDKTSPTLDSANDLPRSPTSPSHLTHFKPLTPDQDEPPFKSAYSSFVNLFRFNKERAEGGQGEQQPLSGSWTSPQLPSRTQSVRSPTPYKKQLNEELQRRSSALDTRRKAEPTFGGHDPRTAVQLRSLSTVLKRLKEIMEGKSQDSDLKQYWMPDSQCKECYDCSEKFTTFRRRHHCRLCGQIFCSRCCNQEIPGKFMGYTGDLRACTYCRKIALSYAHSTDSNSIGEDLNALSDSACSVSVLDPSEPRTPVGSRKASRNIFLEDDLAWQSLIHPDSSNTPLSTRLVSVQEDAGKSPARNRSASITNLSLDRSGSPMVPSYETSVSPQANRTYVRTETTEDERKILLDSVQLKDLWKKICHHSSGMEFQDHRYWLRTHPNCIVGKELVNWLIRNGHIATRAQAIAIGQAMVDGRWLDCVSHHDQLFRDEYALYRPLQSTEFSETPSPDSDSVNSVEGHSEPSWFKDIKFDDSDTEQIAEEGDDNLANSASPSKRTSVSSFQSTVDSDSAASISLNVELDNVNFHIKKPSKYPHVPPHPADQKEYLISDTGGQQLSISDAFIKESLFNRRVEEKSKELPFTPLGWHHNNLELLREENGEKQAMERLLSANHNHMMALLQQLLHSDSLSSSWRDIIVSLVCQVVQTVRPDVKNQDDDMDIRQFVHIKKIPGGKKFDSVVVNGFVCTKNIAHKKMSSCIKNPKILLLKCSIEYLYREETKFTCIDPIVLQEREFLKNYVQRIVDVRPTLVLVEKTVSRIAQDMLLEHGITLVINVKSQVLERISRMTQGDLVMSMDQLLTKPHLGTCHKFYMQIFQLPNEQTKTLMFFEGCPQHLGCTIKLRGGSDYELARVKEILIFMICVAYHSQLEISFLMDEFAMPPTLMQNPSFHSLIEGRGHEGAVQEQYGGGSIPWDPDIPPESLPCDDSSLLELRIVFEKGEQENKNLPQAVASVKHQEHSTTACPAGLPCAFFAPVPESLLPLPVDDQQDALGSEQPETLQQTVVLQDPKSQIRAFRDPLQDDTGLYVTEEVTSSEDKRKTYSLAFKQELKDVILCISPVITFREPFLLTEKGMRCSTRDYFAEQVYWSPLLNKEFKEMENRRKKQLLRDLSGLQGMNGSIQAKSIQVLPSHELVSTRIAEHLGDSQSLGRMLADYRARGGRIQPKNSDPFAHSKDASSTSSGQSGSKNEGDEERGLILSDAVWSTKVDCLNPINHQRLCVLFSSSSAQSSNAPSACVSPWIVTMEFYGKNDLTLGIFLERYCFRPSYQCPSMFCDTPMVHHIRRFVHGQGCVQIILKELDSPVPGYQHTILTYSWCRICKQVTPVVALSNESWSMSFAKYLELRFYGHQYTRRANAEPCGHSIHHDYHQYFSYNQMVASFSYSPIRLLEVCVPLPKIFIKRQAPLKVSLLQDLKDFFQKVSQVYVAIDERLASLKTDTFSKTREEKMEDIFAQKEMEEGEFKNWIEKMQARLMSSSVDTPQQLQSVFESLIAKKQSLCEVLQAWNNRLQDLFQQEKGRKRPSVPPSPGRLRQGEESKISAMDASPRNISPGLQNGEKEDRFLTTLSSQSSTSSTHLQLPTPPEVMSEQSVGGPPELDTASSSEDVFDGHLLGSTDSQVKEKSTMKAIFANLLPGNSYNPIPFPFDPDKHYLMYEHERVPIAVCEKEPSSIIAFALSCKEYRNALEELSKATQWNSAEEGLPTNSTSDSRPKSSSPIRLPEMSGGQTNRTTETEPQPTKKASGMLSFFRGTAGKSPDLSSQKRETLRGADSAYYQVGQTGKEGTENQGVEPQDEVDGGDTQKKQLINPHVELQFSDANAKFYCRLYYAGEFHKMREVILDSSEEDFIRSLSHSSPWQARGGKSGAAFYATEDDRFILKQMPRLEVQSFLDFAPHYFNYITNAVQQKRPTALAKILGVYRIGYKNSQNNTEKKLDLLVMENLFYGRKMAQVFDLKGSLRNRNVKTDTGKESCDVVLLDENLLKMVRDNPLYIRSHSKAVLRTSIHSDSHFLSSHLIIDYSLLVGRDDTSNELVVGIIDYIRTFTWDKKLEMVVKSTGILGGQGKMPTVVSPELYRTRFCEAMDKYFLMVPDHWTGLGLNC

SMILES	degree of vacuolation, 1 μM, 24 h [1]	degree of vacuolation, 1 μM, 48 h [1]	degree of vacuolation, 10 μM, 24 h [1]	degree of vacuolation, 10 μM, 48 h [1]	IC50 [2]	Kd [14]	inhibition at 3.3 µM [15]	inhibition at 3.3 µM [16]	immature cathepsin A and cathepsin D (Western Blot) [17]	also measured
Cc1ccc(NC(=O)c2cccc(C(F)(F)F)c2)cc1Nc1cc(-c2cccnc2)nc2[nH]ccc12 [I-a-1]	+++	+++	+++	+++	2040 nM					inhibition at 3.3 µM [3]: 94%; inhibition at 3.3 µM [4]: 64%; inhibition at 3.3 µM [5]: 61.9%; inhibition at 3.3 µM [6]: 65.3%; inhibition at 3.3 µM [7]: 48.4%; inhibition at 3.3 µM [8]: 56.2%; inhibition at 3.3 µM [9]: 44.2%; inhibition at 3.3 µM [10]: 55.8%; inhibition at 3.3 µM [11]: 54%; inhibition at 3.3 µM [12]: 64.8%; tumor volume ([13]; MDA-MB-231 xenograft mice, tail vein, 5 mg/kg, 20 mg/kg every day, FIG. 4a): effectively inhibit the increase of tumor volume, with good dose dependence; final tumor weight ([13]; MDA-MB-231 xenograft mice, tail vein, 5 mg/kg, 20 mg/kg every day, FIG. 4b): significantly smaller than that in the control group, with good dose dependence; tumor growth ([13]; MDA-MB-231 xenograft, nude mice, intravenous, 5 mg/kg and 20 mg/kg once a day, 12 days, FIG. 4): Effectively Inhibited Tumor Growth
COc1ccc(C(=O)Nc2cccc(C(F)(F)F)c2)cc1Nc1nc(-c2cccnc2)c2[nH]ccc2n1 [V-c-17]	++	−	++	+	743 nM	640 nM	99.7%	95.7%	immature cathepsins A and D gradually increase, with good dose dependence; also recorded: immature cathepsin A and cathepsin D increased, and had good concentration dependence	tumor volume ([18]; JeKo-1 xenograft mice, tail vein, FIG. 5a): effectively inhibit the increase of tumor volume, with good dose dependence; final tumor weight ([18]; JeKo-1 xenograft mice, tail vein, FIG. 5b): significantly smaller than that in the control group, with good dose dependence; tumor growth ([18]; JeKo-1 xenograft, nude mice, intravenous, 7 days, FIG. 5): Effectively Inhibited Tumor Growth
Cc1ccc(NS(=O)(=O)c2cccc(C(F)(F)F)c2)cc1Nc1nc(-c2cccnc2)c2[nH]ccc2n1 [V-c-20]	−	++	−	++	9410 nM	1000 nM	99.7%	33.3%		
Cc1ccc(NC(=O)c2ccc(C(F)(F)F)cc2)cc1Nc1nc(-c2cccnc2)c2[nH]ccc2n1 [V-c-23]	++	−	++	−		33 nM	94.9%	27.2%		inhibition at 10 µM ([2]; 10 μM, read-out: cell growth inhibition rate of compounds at 10 μM): 15.8%
Cc1cccc(/C=N/Nc2cc(N3CCOCC3)nc(OCCc3ccccn3)n2)c1 [apilimod, reference compound]									immature cathepsins A and D gradually increase, with good dose dependence	

Source: patent US11352354B2, “Substituted penta-fused hexa-heterocyclic compounds, preparation method therefor, drug combination and use thereof” (Xiamen University, priority 2017, dated 2022)
